In article PMC3091653, “A new family of phosphoinositide phosphatases in microorganisms: identification and biochemical analysis” (BMC Genomics, 2010):

Biological target: T1, LM1 (Leishmania major, UniProt Q4QBX1)
T1 construct: gene LMJF_22_0250; pET14, His6-tagged (kept), frame shift of original clone removed by mutagenesis; E. coli BL21 (DE3)
Assay: malachite green phosphate release
Assay type: biochemical
Settings: pH 6, 37°C, 100-125 μM substrate

T1 sequence (Q4QBX1 entry or part of it): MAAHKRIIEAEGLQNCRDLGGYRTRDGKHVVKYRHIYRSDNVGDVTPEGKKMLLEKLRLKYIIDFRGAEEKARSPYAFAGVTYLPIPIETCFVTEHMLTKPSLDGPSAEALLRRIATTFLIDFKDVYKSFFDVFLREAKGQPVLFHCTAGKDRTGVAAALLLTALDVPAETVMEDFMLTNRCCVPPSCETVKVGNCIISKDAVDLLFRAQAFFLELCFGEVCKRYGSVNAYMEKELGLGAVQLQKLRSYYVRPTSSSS

For `CCCCCCCC(=O)OC[C@H](COP(=O)(O)O[C@@H]1[C@H](O)[C@H](OP(=O)(O)O)[C@@H](O)[C@H](O)[C@H]1O)OC(=O)CCCCCCC` [diC8-PI(3)P], the “malachite green phosphate release” value was “Both Lmo1935 and LM1 show also activity towards mono-phosphorylated PIs”.
